Experimental data reported in ChEMBL document CHEMBL1201862, “PubChem BioAssay data set” (2004).
Counter-ions that a name gives are not always drawn.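 Test compounds were applied to cells in 96-well plates for 48 hours at 5 doses. Here, GI50 denotes the concentration required for 50% inhibition of growth.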 Calls of active or inactive are those of the source. Cut-off read from the data, not from the text of the source: active = GI50 up to about 1.1 µM and inactive = higher.

Key:
Test in all cases: NCI-60 cell line screen, 48 h
SK-MEL-5 = tested on: SK-MEL-5
HOP-92 = tested on: HOP-92
NCI-H460 = tested on: NCI-H460
IGROV-1 = tested on: IGROV-1
HCC 2998 = tested on: HCC 2998
OVCAR-4 = tested on: OVCAR-4
OVCAR-5 = tested on: OVCAR-5
Malme-3M = tested on: Malme-3M
A498 = tested on: A498
SK-MEL-2 = tested on: SK-MEL-2
UACC-62 = tested on: UACC-62
UO-31 = tested on: UO-31
U-251 = tested on: U-251
LOX IMVI = tested on: LOX IMVI
K562 = tested on: K562
SF-295 = tested on: SF-295
SF-539 = tested on: SF-539
SR = tested on: SR

| Compound | GI50 (SK-MEL-5) | GI50 (HOP-92) | GI50 (NCI-H460) | GI50 (IGROV-1) | GI50 (HCC 2998) | GI50 (OVCAR-4) | GI50 (OVCAR-5) | GI50 (Malme-3M) | GI50 (A498) | GI50 (SK-MEL-2) | GI50 (UACC-62) | GI50 (UO-31) | GI50 (U-251) | GI50 (LOX IMVI) | GI50 (K562) | GI50 (SF-295) | GI50 (SF-539) | GI50 (SR) |
| --- | --- | --- | --- | --- | --- | --- | --- | --- | --- | --- | --- | --- | --- | --- | --- | --- | --- | --- |
| Oc1cc(-c2ccccc2)nc2cc(Cl)ccc12 | 0.191 µM (active) | 0.376 µM (active) | 0.417 µM (active) | 0.54 µM (active) | 0.897 µM (active) | 9.14 µM (inactive) | > 100 µM (inactive) | 0.42 µM (active) | 1.35 µM (inactive) | 0.445 µM (active) | 0.294 µM (active) | 5.06 µM (inactive) | 0.509 µM (active) | 0.869 µM (active) | 0.382 µM (active) | 0.368 µM (active) | 0.412 µM (active) | – |
| O=C1CCC2(c3ccc(F)cc3)Nc3cc(Cl)ccc3N12 (stereo unspecified) | 45.5 µM (inactive) | – | – | > 100 µM (inactive) | – | 48.6 µM (inactive) | – | 59.7 µM (inactive) | > 100 µM (inactive) | > 100 µM (inactive) | 66.1 µM (inactive) | 94.2 µM (inactive) | > 100 µM (inactive) | > 100 µM (inactive) | 44.6 µM (inactive) | 60.5 µM (inactive) | > 100 µM (inactive) | 43.4 µM (inactive) |
| COC(=O)N/N=C(/CCN1CCCC1)CC(c1ccccc1)c1c(O)c2ccccc2oc1=O (stereo unspecified) | > 100 µM (inactive) | – | > 100 µM (inactive) | > 100 µM (inactive) | > 100 µM (inactive) | > 100 µM (inactive) | > 100 µM (inactive) | > 100 µM (inactive) | > 100 µM (inactive) | > 100 µM (inactive) | 72.8 µM (inactive) | 61.4 µM (inactive) | > 100 µM (inactive) | > 100 µM (inactive) | > 100 µM (inactive) | > 100 µM (inactive) | > 100 µM (inactive) | > 100 µM (inactive) |
| O=C(CC1(O)C(=O)Nc2c(Cl)ccc(Cl)c21)c1ccc(Cl)cc1Cl (stereo unspecified) | – | 21 µM (inactive) | 20.5 µM (inactive) | 18.3 µM (inactive) | 15.7 µM (inactive) | 10.4 µM (inactive) | 16.6 µM (inactive) | 20.4 µM (inactive) | 26.3 µM (inactive) | 21.3 µM (inactive) | 16.1 µM (inactive) | 20.7 µM (inactive) | 10 µM (inactive) | 14.3 µM (inactive) | – | 23.2 µM (inactive) | 19.2 µM (inactive) | – |
| CCC1CCC2CCCC(C)N12 (stereo unspecified) | – | > 100 µM (inactive) | – | > 100 µM (inactive) | > 100 µM (inactive) | > 100 µM (inactive) | – | > 100 µM (inactive) | – | > 100 µM (inactive) | > 100 µM (inactive) | > 100 µM (inactive) | > 100 µM (inactive) | – | > 100 µM (inactive) | > 100 µM (inactive) | > 100 µM (inactive) | > 100 µM (inactive) |
| NCCOCn1cc(Cc2cccc(OCc3ccccc3)c2)c(=O)[nH]c1=O | > 100 µM (inactive) | > 100 µM (inactive) | 63.5 µM (inactive) | > 100 µM (inactive) | 42.2 µM (inactive) | 90.6 µM (inactive) | – | – | > 10 µM (inactive) | > 100 µM (inactive) | > 100 µM (inactive) | > 100 µM (inactive) | > 100 µM (inactive) | 39 µM (inactive) | 42.8 µM (inactive) | > 100 µM (inactive) | > 100 µM (inactive) | – |
| O=C(/N=C(/Nc1ccccc1)SCCS/C(=N\C(=O)c1ccccc1)Nc1ccccc1)c1ccccc1 | 48.3 µM (inactive) | 16.8 µM (inactive) | 44.3 µM (inactive) | > 100 µM (inactive) | 34.9 µM (inactive) | 42.1 µM (inactive) | > 100 µM (inactive) | > 100 µM (inactive) | 58.7 µM (inactive) | > 100 µM (inactive) | 52.2 µM (inactive) | 32.9 µM (inactive) | 79.8 µM (inactive) | 58.6 µM (inactive) | 43.6 µM (inactive) | 58.9 µM (inactive) | 68.2 µM (inactive) | – |
| CC(=O)NNc1ncc(C(=O)/C=C/c2ccccc2C)s1 | > 100 µM (inactive) | > 100 µM (inactive) | > 100 µM (inactive) | > 100 µM (inactive) | > 100 µM (inactive) | – | > 100 µM (inactive) | > 100 µM (inactive) | > 100 µM (inactive) | > 100 µM (inactive) | > 100 µM (inactive) | > 100 µM (inactive) | > 100 µM (inactive) | > 100 µM (inactive) | > 100 µM (inactive) | > 100 µM (inactive) | > 100 µM (inactive) | – |
| COC(=O)C1=CCS(=O)(=O)C1 | 5.16 µM (inactive) | > 100 µM (inactive) | > 100 µM (inactive) | > 100 µM (inactive) | > 100 µM (inactive) | > 100 µM (inactive) | > 100 µM (inactive) | > 100 µM (inactive) | > 100 µM (inactive) | > 100 µM (inactive) | > 100 µM (inactive) | > 100 µM (inactive) | – | > 100 µM (inactive) | > 100 µM (inactive) | > 100 µM (inactive) | > 100 µM (inactive) | – |
| O=C(c1ccccc1)[C@H]1Nc2ccc(Cl)cc2[C@H]2c3ccccc3O[C@H]21 | 13.2 µM (inactive) | – | 16.5 µM (inactive) | 17.7 µM (inactive) | 16.8 µM (inactive) | 18.2 µM (inactive) | 16 µM (inactive) | 15.8 µM (inactive) | 12.1 µM (inactive) | 13.5 µM (inactive) | 13.6 µM (inactive) | 5.27 µM (inactive) | 15.6 µM (inactive) | 20.7 µM (inactive) | 14.5 µM (inactive) | 15.5 µM (inactive) | 15 µM (inactive) | 16.5 µM (inactive) |
| CC(=O)O[C@H]1CC2C=CC3C(CCC31)O2 (stereo partly specified) | – | – | > 100 µM (inactive) | > 100 µM (inactive) | > 100 µM (inactive) | > 100 µM (inactive) | – | > 100 µM (inactive) | – | – | > 100 µM (inactive) | > 100 µM (inactive) | > 100 µM (inactive) | > 100 µM (inactive) | > 100 µM (inactive) | – | – | – |
| Brc1ccc(C2SCc3nc4ccccc4n32)cc1 (stereo unspecified) | 3.72 µM (inactive) | 1.06 µM (active) | 12.9 µM (inactive) | 10.3 µM (inactive) | – | 7.53 µM (inactive) | 5.4 µM (inactive) | 12.9 µM (inactive) | – | 14.1 µM (inactive) | 6.68 µM (inactive) | 11 µM (inactive) | 12 µM (inactive) | 6.46 µM (inactive) | 3.65 µM (inactive) | 11.5 µM (inactive) | 18.5 µM (inactive) | 7.6 µM (inactive) |
| CCOc1cn(C2OC(CO)C(O)C2O)c(=O)[nH]c1=O (stereo unspecified) | > 100 µM (inactive) | > 100 µM (inactive) | > 100 µM (inactive) | > 100 µM (inactive) | > 100 µM (inactive) | – | > 100 µM (inactive) | > 100 µM (inactive) | > 100 µM (inactive) | > 100 µM (inactive) | > 100 µM (inactive) | > 100 µM (inactive) | 20.3 µM (inactive) | > 100 µM (inactive) | > 100 µM (inactive) | > 100 µM (inactive) | – | – |
| CCCCC1(C(NC(=O)c2ccccc2Cl)c2ccncc2)C(=O)N(c2ccccc2)N(c2ccccc2)C1=O (stereo unspecified) | 18.1 µM (inactive) | 39.6 µM (inactive) | 32.8 µM (inactive) | > 100 µM (inactive) | 57.5 µM (inactive) | – | > 100 µM (inactive) | 61 µM (inactive) | – | 50.9 µM (inactive) | 69.5 µM (inactive) | 33 µM (inactive) | 34 µM (inactive) | 56.9 µM (inactive) | 33.5 µM (inactive) | 55.7 µM (inactive) | 88.1 µM (inactive) | 55.1 µM (inactive) |
| Cc1cc2c(CC(=O)O)n[nH]c2c(C(=O)O)c1C | – | > 100 µM (inactive) | > 100 µM (inactive) | – | > 100 µM (inactive) | – | > 100 µM (inactive) | > 100 µM (inactive) | – | > 100 µM (inactive) | > 100 µM (inactive) | > 100 µM (inactive) | > 100 µM (inactive) | > 100 µM (inactive) | – | > 100 µM (inactive) | > 100 µM (inactive) | > 100 µM (inactive) |
| O=c1/c(=C/c2ccc(Cl)cc2Cl)sc2nc3ccccc3n12 | > 100 µM (inactive) | > 100 µM (inactive) | > 100 µM (inactive) | > 100 µM (inactive) | > 100 µM (inactive) | > 100 µM (inactive) | > 100 µM (inactive) | > 100 µM (inactive) | > 100 µM (inactive) | > 100 µM (inactive) | > 100 µM (inactive) | > 100 µM (inactive) | > 100 µM (inactive) | > 100 µM (inactive) | > 100 µM (inactive) | > 100 µM (inactive) | > 100 µM (inactive) | – |
| O=C1Sc2ccccc2C(=O)N2CSCC12 (stereo unspecified) | > 100 µM (inactive) | > 100 µM (inactive) | > 100 µM (inactive) | > 100 µM (inactive) | > 100 µM (inactive) | – | – | > 100 µM (inactive) | – | > 100 µM (inactive) | > 100 µM (inactive) | > 100 µM (inactive) | > 100 µM (inactive) | > 100 µM (inactive) | > 100 µM (inactive) | > 100 µM (inactive) | > 100 µM (inactive) | > 100 µM (inactive) |
| Cc1nccc2c1[nH]c1cc(O)ccc12 [HARMOL HYDROCHLORIDE] | 69.2 µM (inactive) | 27.5 µM (inactive) | 37.4 µM (inactive) | 45.8 µM (inactive) | 91 µM (inactive) | > 100 µM (inactive) | 68.2 µM (inactive) | 44.7 µM (inactive) | 63.4 µM (inactive) | > 100 µM (inactive) | 96.6 µM (inactive) | 37.6 µM (inactive) | > 100 µM (inactive) | 45.6 µM (inactive) | 37.1 µM (inactive) | 33 µM (inactive) | 73.3 µM (inactive) | – |
